Results reported in ChEMBL document CHEMBL4138114, “Pharmacophore guided discovery of small-molecule interleukin 15 inhibitors” (Eur J Med Chem, 2017).
The source made the active and inactive calls. The rule behind the calls is not given here.

Columns and labels:
Type in all cases: cell-based
[1] = target: T1, IL15-IL15 receptor (Homo sapiens) (UniProt P40933+Q13261); test: Inhibition of IL-15 (unknown origin)/IL-15Ralpha interaction in human PBMC cells assessed as reduction of TNF-alpha synthesis preincubated for 30 mins followed by IL-15 addition measured after 48 hrs by ELISA
T1 sequence (P40933 49-162 limits assumed): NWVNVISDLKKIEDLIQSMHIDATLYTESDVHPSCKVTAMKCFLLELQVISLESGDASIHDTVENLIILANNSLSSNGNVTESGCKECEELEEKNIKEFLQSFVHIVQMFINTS
T1 sequence (Q13261 31-267 partner limits assumed): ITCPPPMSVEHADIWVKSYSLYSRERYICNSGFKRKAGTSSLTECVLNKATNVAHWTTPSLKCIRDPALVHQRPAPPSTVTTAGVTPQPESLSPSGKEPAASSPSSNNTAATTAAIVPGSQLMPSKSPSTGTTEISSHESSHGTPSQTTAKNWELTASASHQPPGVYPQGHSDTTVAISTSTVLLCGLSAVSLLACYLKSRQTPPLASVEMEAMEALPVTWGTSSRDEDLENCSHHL

[2] = target: T1, IL15-IL15 receptor (Homo sapiens); test: Inhibition of IL-15 (unknown origin)/IL-15Ralpha interaction in human PBMC cells assessed as reduction of IL-17 synthesis preincubated for 30 mins followed by IL-15 addition measured after 48 hrs by ELISA
PBMC = test: Cytotoxicity against human PBMC cells up to 200 uM after 48 hrs by CellTiter 96 AQueous one solution cell proliferation assay

Compound | TNF-alpha synthesis inhibition (active/not active) [1] | inhibition [2] | Activity (PBMC)
O=C(O)c1ccc(CNC(=O)C2C3CCC(C3)C2C(=O)O)cc1 (configuration not stated) | Active | Active | Non-Toxic
O=C(O)CCC(=O)Nc1cc(NC(=O)CCC(=O)O)cc(C(=O)O)c1 | Active | Active | Non-Toxic
O=C(O)c1ccc(CNC(=O)C2CCCCC2C(=O)O)cc1 (configuration not stated) | Active | Active | Non-Toxic
NCCC(=O)N[C@@H](Cc1cnc[nH]1)C(=O)O [CARNOSINE] |  |  | Non-Toxic
C/C(C/C(C)=N/N=C(N)N)=N\N=C(N)N | Active | Active | Non-Toxic
COc1ccc(S(=O)(=O)Nc2cccc(C(=O)O)c2)cc1C(=O)O | inactive | inactive | Non-Toxic
NCCC(=O)NCCc1c[nH]cn1 [CARCININE] | Active | Active | Non-Toxic
O=C(O)c1ccc(CNC(=O)C2CC=CCC2C(=O)O)cc1 (configuration not stated) | inactive | inactive | Non-Toxic

Second part, led by results:

TNF-alpha synthesis inhibition (active/not active) [1] | inhibition [2] | Compound | Activity (PBMC)
Active | Active | Cc1nnc(SCC2=C(C(=O)O)N3C(=O)[C@@H](NC(=O)Cn4cnnn4)[C@H]3SC2)s1 [CEFAZOLIN] | Non-Toxic
inactive | inactive | O=C(O)Cc1ccc(NC(=O)C2CC=CCC2C(=O)O)cc1 (configuration not stated) | Non-Toxic
Active | Active | COC(=O)c1ccc(O)c(C)c1O | Non-Toxic
Active | Active | NC(CCCCCCC(N)C(=O)O)C(=O)O (configuration not stated) | Non-Toxic
inactive | inactive | CCC(=O)Nc1ccc(Cc2ccc(NC(=O)CC)c(C(=O)O)c2)cc1C(=O)O | Non-Toxic
inactive | inactive | COc1ccc(-n2nnnc2S(=O)(=O)Cc2ccc(C(=O)O)cc2)cc1 | Non-Toxic
Active | Active | COC(=O)CCC(=O)NCc1ccc(C(=O)OC)cc1 | Non-Toxic
inactive | inactive | O=C(O)CCC(=O)NCc1ccc(C(=O)O)cc1 | Non-Toxic
inactive | inactive | NCCC(=O)N[C@@H](Cc1c[nH]cn1)C(=O)O | 
Active | Active | NC(N)=NC(=O)CNCC(=O)N=C(N)N | Non-Toxic
Active | Active | O=C(O)c1ccc(CSc2nnnn2-c2ccc(F)cc2)cc1 | Non-Toxic
inactive | inactive | O=C(O)c1ccc(CSc2nnnn2C2CCCCC2)cc1 | Non-Toxic
